Consider one compound from patent US20260158111A1, “USE OF TGF IN THE PREVENTION VIRUS INFECTION OF THE RESPIRATORY TRACT” (FrieslandCampina Nederland B.V., priority 2021, published 2026).

The subject of this assay is Detroit D562 cells. The assay can be described thus: Airway epithelial cells pretreated with component, then stimulated with viral infection proxy poly I:C; cytokine ELISA of supernatant. Type of assay: cell-based. The conditions noted are these: Example 7; Galunisertib alone 100 nM. The method, then:
Detroit […] cells (ATCC-CCL138) were cultured in a T75 flask (Corning cat. No. 430641) in minimum essential medium (MEM, Invitrogen Catalog No. 21090-022) with 1× non-essential amino acids (Invitrogen cat. No. 11140-035), 10 mM sodium pyruvate (Invitrogen cat. No. 11360-039), 2 mM glutamax (Invitrogen cat. No. 35050-038), 1000 U/ml antibiotics penicillin, 1000 μg/ml […] and 10% serum (Hyclone, GE healthcare Life Sciences, lot. No. RB35936), henceforth called 10% complete medium with serum (CMS). Cells were trypsinized when confluency of 80% or greater was achieved, using 3 ml of Trypsin-EDTA (Invitrogen, cat. No. 25200-056) and resuspended into 12 ml of 10% CMS. Cells were counted and seeded at 6*10^4 cells/ml in three 24-well tissue culture treated plate (Corning cat. No. 3527) with 1 ml per well. These were cultured for one week till confluent. […] All the components were calibrated on protein concentration and added on cells at the calculated total protein concertation of 1 mg/ml on dry matter. […] ELISA kits from R&D Systems (Biotechne) were used to quantify cytokines IL-8/CXCL8 (DY208), IL-6 (DY206), TNF-α (DY210) and IFN-λ1/3 (DY1598B) according to the manufacturer's guidelines. Absorbance was measured at 450 nm and corrected for at 570 nm using the Biorad iMark plate reader & Imark software version 6.2. Cytokines were quantified before and after the addition of poly I:C.
For orientation: An ELISA detects its analyte on a solid surface through an enzyme-linked reagent.

In the case of `Cc1cccc(-c2nn3c(c2-c2ccnc4ccc(C(N)=O)cc24)CCC3)n1` [Galunisertib], the “effect of Galunisertib alone on the cells” value is on record as “had no effect on the cells”.
